system: OVCAR5; assay: EGF induced ERK activation in OVCAR5 cells; assay type: cell-based; conditions: not given

| SMILES | inhibition of EGF induced ERK activation |
| --- | --- |
| O=C1Cc2cc(NC(=O)Nc3ccc(F)cc3)ccc2N1 [GRB001] | inhibition of EGF induced ERK activation |

system: A549 (lung adenocarcinoma) cells with G12S KRAS mutation; assay: EGF induced MAPK activation in A549 cells; assay type: cell-based; conditions: not given

| SMILES | inhibition of EGF induced MAPK activation |
| --- | --- |
| O=C1Cc2cc(NC(=O)Nc3ccc(F)cc3)ccc2N1 [GRB001] | inhibits RTK induced Ras signaling |

system: MDA-MB-231 triple negative breast cancer cells with G13D k-Ras mutation; assay: EGF induced MAPK activation in MDA-MB-231 cells; assay type: cell-based; conditions: not given

| SMILES | inhibition of EGF induced MAPK activation |
| --- | --- |
| O=C1Cc2cc(NC(=O)Nc3ccc(F)cc3)ccc2N1 [GRB001] | inhibits RTK induced Ras signaling |

biological target: T1, GRB2 (Homo sapiens, UniProt P62993); assay: ITC binding to GRB2; conditions: read-out: Kd, ITC binding isotherm
Excerpt: Validation of in vitro binding of GRB001 to GRB2 with ITC as an alternative technique. […] GRB001 is able to bind GRB2 in two different conformations as reflected by the energy signature (inset).
FIGS. 14A-14C show ITC binding isotherm of GRB001 binding to GRB2 as in FIG. 4 (FIG. 14A).

| Kd [µM] | SMILES |
| --- | --- |
| 0.527 ± 0.367 | O=C1Cc2cc(NC(=O)Nc3cc(Cl)cc(Cl)c3)ccc2N1 [GRB092] |

same assay, conditions: read-out: Kd, binding to GRB2 by ITC

| SMILES | Kd [µM] |
| --- | --- |
| O=C1Cc2cc(NC(=O)Nc3ccc(F)cc3)ccc2N1 [GRB001] | 37 |

system: OVCAR5 cells; assay: nuclear fragmentation of OVCAR5 cells, high-throughput assay; assay type: cell-based; conditions: 500 nM compound
Excerpt: The intensity of the red color represents nuclear condensation indicative of apoptotic cells.

| SMILES | nuclear fragmentation of OVCAR5 cells |
| --- | --- |
| O=C1Cc2cc(NC(=O)Nc3ccc(Cl)c(Cl)c3)ccc2N1 [GRB002] | inducing nuclear fragmentation |

same assay, conditions: OVCAR5 cells

| SMILES | quantitation of fragmented nucleus among Series-1 GRB001 analogues |
| --- | --- |
| O=C1Cc2cc(NC(=O)Nc3ccc4c(c3)OCO4)ccc2N1 [GRB005] | highest level of fragmented nucleus |
| O=C1Cc2cc(NC(=O)Nc3ccc(Cl)c(Cl)c3)ccc2N1 [GRB002] | highest level of fragmented nucleus |

system: not listed separately; assay: Sulforhodamine B (SRB) cytotoxicity in HEK293T cells; assay type: cell-based; conditions: human
Experimental: (§1) Titrating concentrations of each compounds were used to treat cells for 72 hours. The data was normalized against 100% survival at the lowest inhibitor concentration. Graphs for IC50 were fitted to the four-parameter logistic equation using Prism8. Error bars show the percent coefficient of variation. Equivalent concentrations of DMSO were used as a negative control.
(§2) SRB cytotoxicity analysis was also performed using GRB152 in HEK293T and MDA-MB-231 cells. Cells were exposed to various concentrations of compound for 72 h before viability measurements.

| SMILES | IC50 at 72 h [µM] |
| --- | --- |
| COc1ccc(Cl)cc1NC(=O)Nc1ccc2[nH]c(=O)oc2c1 [GRB161] | > 120 |
| O=c1[nH]c2ccc(NC(=S)Nc3ccc(Cl)c(Cl)c3)cc2o1 [GRB152] | 1.5 ± 0.5 |

system: A549 lung cancer cells; assay: apoptosis in A549 tumor cells; assay type: cell-based; conditions: not given

| SMILES | induction of apoptosis |
| --- | --- |
| O=C1Cc2cc(NC(=O)Nc3ccc(F)cc3)ccc2N1 [GRB001] | induces apoptosis |

biological target: T1, GRB2; assay: fluorescence anisotropy assay measuring GRB2 dimerization; assay type: biochemical; conditions: 100 nM Atto488 labeled GRB2; NB = No Binding (inability to induce GRB2 dimerization); read-out: EC50 anisotropy, compound induced GRB2 dimerization
Experimental: FIGS. 16A & 16B show fluorescence anisotropy assay data measuring GRB2 dimerization. 100 nM Atto488 labeled GRB2, which is below its dimer forming concentration, was used to identify compounds that induce dimerization. […] Note that NB represent compounds inability to induce GRB2 dimerization.
GRB2 dimerization was measured by fluorescence anisotropy assay. 100 nM Atto488 labeled GRB2, which is below its dimer forming concentration, was used to identify compounds that induce dimerization. […] Note that NB represent compounds inability to induce GRB2 dimerization.

| SMILES | EC50 [µM] |
| --- | --- |
| COc1ccccc1NC(=O)Nc1ccc2c(c1)CC(=O)N2 [GRB012] | 4.5 |
| O=C1Cc2cc(NC(=S)Nc3cccc(Cl)c3)ccc2N1 [GRB095] | 50.9 |
| COC(=O)c1cccc(NC(=O)Nc2ccc3c(c2)CC(=O)N3)c1 [GRB094] | 23 |
| N#Cc1ccc(NC(=O)Nc2ccc3[nH]c(S)nc3c2)cc1 [GRB063] | 124 |
| COc1cccc(NC(=O)Nc2ccc3[nH]c(=O)oc3c2)c1 [GRB105] | 9.7 |
| CCN1C(=O)Cc2cc(NC(=O)Nc3ccc(Cl)c(Cl)c3)ccc21 [GRB009] | 5.5 |
| CC(=O)c1cccc(NC(=O)Nc2ccc3[nH]c(SCc4ccc(F)cc4)nc3c2)c1 [GRB073] | 15 |
| O=C1Cc2cc(NC(=S)Nc3ccc(Cl)c(Cl)c3)ccc2N1 [GRB086] | 1.5 |
| O=C1Cc2cc(NC(=O)NC(=O)c3ccccc3)ccc2N1 [GRB091] | 13.3 |
| O=c1[nH]c2ccc(NC(=S)NCCN3CCOCC3)cc2[nH]1 [GRB050] | 56 |
| Cc1ccccc1NC(=O)Nc1ccc2[nH]c(S)nc2c1 [GRB058] | 2 |
| O=C1Cc2cc(NC(=O)Nc3cccc(Br)c3)ccc2N1 [GRB087] | 4.6 |
| O=C1Cc2cc(NC(=O)Nc3cccc(Cl)c3)ccc2N1 [GRB004] | 26 |
| CN1C(=O)Cc2cc(NC(=O)Nc3ccc(F)cc3)ccc21 [GRB006] | 2.7 |
| O=C1Cc2cc(NC(=O)Nc3ccc(F)cc3)ccc2N1 [GRB001] | 49.7 |
| COc1cccc(NC(=O)Nc2ccc3[nH]c(S)nc3c2)c1 [GRB061] | 129 |
| O=C(Nc1ccc2ccccc2c1)Nc1ccc2[nH]c(SCc3ccc(F)cc3)nc2c1 [GRB070] | 128 |
| Cc1cc(C)cc(NC(=O)Nc2ccc3[nH]c(S)nc3c2)c1 [GRB062] | 78 |
| O=C(Nc1ccccc1)Nc1ccc2[nH]c(SCc3ccc(F)cc3)nc2c1 [GRB065] | 350 |

| SMILES | EC50 [µM] |
| --- | --- |
| O=C(Nc1cccc(F)c1)Nc1ccc2[nH]c(SCc3ccc(F)cc3)nc2c1 [GRB075] | 23 |
| O=C(Nc1cc(Cl)cc(Cl)c1)Nc1ccc2[nH]c(=O)oc2c1 [GRB101] | 13 |
| Cc1cc(NC(=O)Nc2ccc3c(c2)CC(=O)N3)ccc1Cl [GRB090] | 13 |
| Cc1cccc(NC(=O)Nc2ccc3c(c2)CC(=O)N3)c1C [GRB089] | 9.1 |
| CSc1nc2cc(C(=O)Nc3cccc(F)c3)ccc2[nH]1 [GRB077] | 502 |
| Cc1ccc(NC(=O)Nc2ccc3[nH]c(=O)oc3c2)cc1 [GRB104] | 3.1 |
| Cc1ccc(NC(=O)Nc2ccc3c(c2)CC(=O)N3)c(C)c1 [GRB093] | 15.5 |
| O=C(Nc1ccccc1)Nc1ccc2[nH]c(S)nc2c1 [GRB064] | 116 |
| Cc1ccc(S(=O)(=O)Nc2ccc3[nH]c(S)nc3c2)cc1 [GRB078] | 436 |
| O=C1Cc2cc(NC(=O)Nc3cccs3)ccc2N1 [GRB003] | 9.7 |
| O=C1Cc2cc(NC(=O)Nc3ccc(F)c(Cl)c3)ccc2N1 [GRB088] | 8.3 |
| Cc1cc(C)cc(NC(=O)Nc2ccc3[nH]c(SCc4ccc(F)cc4)nc3c2)c1 [GRB067] | 48 |
| O=C(Cc1ccc(F)cc1)Nc1ccc2[nH]c(S)nc2c1 [GRB074] | 205 |
| CCN1C(=O)Cc2cc(NC(=O)Nc3ccc(Cl)cc3)ccc21 [GRB010] | 3.9 |
| CCOC(=O)CNC(=O)Nc1ccc2[nH]c(=O)[nH]c2c1 [GRB027] | 10.1 |
| O=C(NCc1ccc(F)cc1)Nc1ccc2[nH]c(SCc3ccc(F)cc3)nc2c1 [GRB066] | 246 |
| O=C1Cc2cc(NC(=O)Nc3cc(Cl)cc(Cl)c3)ccc2N1 [GRB092] | 13.8 |
| COC(=O)c1cccc(NC(=O)c2ccc3[nH]c(S)nc3c2)c1 [GRB076] | 62 |
| COc1cccc(NC(=O)Nc2ccc3c(c2)CC(=O)N3C)c1 [GRB007] | 15.7 |

Results, then the molecule that gave them:

| EC50 [µM] | SMILES |
| --- | --- |
| > 100 | COc1cc(NC(=O)Nc2ccc3[nH]c(=O)[nH]c3c2)cc(OC)c1OC [GRB032] |
| 225 | O=C(Nc1cc(F)cc(F)c1)Nc1ccc2[nH]c(SCc3ccc(F)cc3)nc2c1 [GRB071] |
| 40.3 | O=C(Nc1ccc(F)c(Cl)c1)Nc1ccc2[nH]c(=O)[nH]c2c1 [GRB031] |
| 3.1 | O=C(Nc1cccc(F)c1)Nc1ccc2[nH]c(=O)[nH]c2c1 [GRB023] |
| 8.2 | Cc1ccc(NC(=O)Nc2ccc3[nH]c(=O)[nH]c3c2)c(C)c1 [GRB026] |
| > 100 | COC(=O)c1cccc(NC(=O)Nc2ccc3[nH]c(=O)[nH]c3c2)c1 [GRB033] |
| 264 | COc1cccc(NC(=O)Nc2ccc3[nH]c(=O)[nH]c3c2)c1 [GRB034] |
| 1 | Cc1ccc(NC(=O)Nc2ccc3[nH]c(=O)[nH]c3c2)cc1 [GRB021] |
| 11.5 | O=C(NCc1ccccc1)Nc1ccc2[nH]c(=O)[nH]c2c1 [GRB049] |
| 0.75 | Cc1cc(Br)ccc1NC(=O)Nc1ccc2[nH]c(=O)[nH]c2c1 [GRB020] |
| 8.3 | O=c1[nH]c2ccc(NC(=S)Nc3ccc(Cl)c(Cl)c3)cc2[nH]1 [GRB048] |
| 2.4 | O=C(Nc1cc(F)cc(F)c1)Nc1ccc2[nH]c(S)nc2c1 [GRB060] |
| > 100 | COc1ccccc1NC(=O)Nc1ccc2[nH]c(=O)[nH]c2c1 [GRB051] |
| 2 | O=C(Nc1cccc(C(F)(F)F)c1)Nc1ccc2[nH]c(=O)[nH]c2c1 [GRB046] |
| 6 | N#Cc1cccc(NC(=O)Nc2ccc3[nH]c(=O)[nH]c3c2)c1 [GRB025] |
| 9.7 | O=C(Nc1ccc(F)cc1)Nc1ccc2[nH]c(=O)[nH]c2c1 [GRB047] |
| 37.3 | Cc1cccc(NC(=O)Nc2ccc3[nH]c(=O)[nH]c3c2)c1C [GRB030] |
| 2.1 | O=C(Nc1ccc(Cl)c(Cl)c1)Nc1ccc2[nH]c(=O)[nH]c2c1 [GRB022] |
| 1.1 | O=C1Cc2cc(NC(=O)Nc3cc(F)cc(F)c3)ccc2N1 [GRB085] |
| 10.2 | O=C(Nc1cc(Cl)cc(Cl)c1)Nc1ccc2[nH]c(=O)[nH]c2c1 [GRB028] |
| 16.3 | Cc1ccc(NC(=O)Nc2ccc3[nH]c(=O)[nH]c3c2)c(C)c1 [GRB029] |
| > 100 | O=C(Nc1cc(F)cc(F)c1)Nc1ccc2[nH]c(=O)oc2c1 [GRB102] |
| 4.6 | O=C(Nc1cc(F)cc(F)c1)Nc1ccc2[nH]c(=O)[nH]c2c1 [GRB024] |

system: not listed separately; assay: Sulforhodamine B (SRB) cytotoxicity in MDA-MB-231 cells; assay type: cell-based; conditions: human
Experimental: as §1, §2

| SMILES | IC50 at 72 h [µM] |
| --- | --- |
| O=c1[nH]c2ccc(NC(=S)Nc3ccc(Cl)c(Cl)c3)cc2o1 [GRB152] | 12.1 ± 1.5 |

biological target: T1, GRB2; assay: GRB001 binding to GRB2 by MST; conditions: read-out: Kd, in vitro binding to GRB2 by MST
Experimental: In vitro binding of GRB001 to GRB2 with 50 μM Kd.

| SMILES | Kd [µM] |
| --- | --- |
| O=C1Cc2cc(NC(=O)Nc3ccc(F)cc3)ccc2N1 [GRB001] | 50 |

system: RTK induced Ras signaling; assay: EGF and FGF induced MAPK activation in multiple cancer cell-lines; assay type: cell-based; conditions: not given
Excerpt: GRB001 inhibits RAS/ERK activation while EGFR is fully active (FIG. 6D, top panel and the corresponding active EGFR in bottom panel)

| SMILES | inhibition of EGF and FGF induced MAPK activation |
| --- | --- |
| O=C1Cc2cc(NC(=O)Nc3ccc(F)cc3)ccc2N1 [GRB001] | inhibits EGF and FGF induced MAPK activation |

biological target: GRB2 dimer interface (Homo sapiens, UniProt P62993); assay: GRB2 monomer dimer equilibrium measurement; assay type: biochemical; conditions: presence of 100 μM GRB001
Experimental: Measurements of GRB2 monomer dimer equilibrium in the absence (lower, darker line) or presence of 100 μM GRB001 (upper, lighter line).

| SMILES | effect on GRB2 monomer dimer equilibrium |
| --- | --- |
| O=C1Cc2cc(NC(=O)Nc3ccc(F)cc3)ccc2N1 [GRB001] | induce a Kd shift favoring dimerization |

system: MDA-MB-231 TNBC; assay: apoptosis in MDA-MB-231 tumor cells; assay type: cell-based; conditions: not given
Excerpt: GRB001 specifically kills triple negative breast cancer cells through caspase 3/7 mediated apoptosis (FIG. 8B).

| SMILES | induction of apoptosis |
| --- | --- |
| O=C1Cc2cc(NC(=O)Nc3ccc(F)cc3)ccc2N1 [GRB001] | induces apoptosis |

system: OVCAR8 cells; assay: EGF induced ERK activation in OVCAR8 cells; assay type: cell-based; conditions: not given

| SMILES | inhibition of EGF induced ERK activation |
| --- | --- |
| O=C1Cc2cc(NC(=O)Nc3ccc(F)cc3)ccc2N1 [GRB001] | inhibition of EGF induced ERK activation |
